Source: patent US7868024B2, “Derivatives of N-(heteroaryl)-1-heteroaryl-1H-indole-2-carboxamides, preparation thereof and therapeutic use thereof” (Sanofi-Aventis, priority 2007, dated 2011)

Key:
TRPV1 receptor = molecular target: T1, TRPV1 receptor (Rattus norvegicus, UniProt O35433); experiment: Inhibition of the current induced by capsaicin in rat DRG cells (whole-cell patch clamp); type: cell-based; settings: DRG neuron; compound at 10 nM; capsaicin (1 μM) response; primary culture of newborn rat DRG neurons; read-out: % Inhibition by the DRG patch technique
T1 construct: The neurons of the DRG naturally express the TRPV1 receptor; endogenous in cells; host or cells: primary culture of newborn rat dorsal root ganglion (DRG) neurons
T1 sequence (O35433 whole entry): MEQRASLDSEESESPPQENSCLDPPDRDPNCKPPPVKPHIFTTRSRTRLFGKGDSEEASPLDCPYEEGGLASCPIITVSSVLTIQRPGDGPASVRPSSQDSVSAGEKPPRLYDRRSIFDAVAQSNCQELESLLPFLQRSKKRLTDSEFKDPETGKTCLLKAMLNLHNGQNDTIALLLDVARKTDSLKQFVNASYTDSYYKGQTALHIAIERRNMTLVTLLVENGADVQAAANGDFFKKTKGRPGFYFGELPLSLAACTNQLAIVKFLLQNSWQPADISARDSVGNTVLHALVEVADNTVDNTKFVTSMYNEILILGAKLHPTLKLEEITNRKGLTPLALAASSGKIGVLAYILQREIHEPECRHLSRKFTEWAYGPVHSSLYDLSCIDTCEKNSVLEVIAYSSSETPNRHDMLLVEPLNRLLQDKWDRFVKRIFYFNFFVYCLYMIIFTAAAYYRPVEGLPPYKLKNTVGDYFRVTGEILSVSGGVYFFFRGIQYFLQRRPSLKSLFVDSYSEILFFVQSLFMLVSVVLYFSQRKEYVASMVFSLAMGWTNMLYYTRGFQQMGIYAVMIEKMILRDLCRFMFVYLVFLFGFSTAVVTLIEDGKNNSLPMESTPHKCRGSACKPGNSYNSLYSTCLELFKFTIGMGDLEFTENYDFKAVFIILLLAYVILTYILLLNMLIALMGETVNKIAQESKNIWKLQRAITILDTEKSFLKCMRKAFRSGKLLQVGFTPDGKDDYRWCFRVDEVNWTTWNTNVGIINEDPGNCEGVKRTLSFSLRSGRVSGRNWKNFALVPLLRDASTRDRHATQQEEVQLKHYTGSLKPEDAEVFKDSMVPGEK
Method: Test of the Inhibition of the Current Induced by Capsaicin with Regard to Rat DRGs
Primary Culture of Rat Dorsal Root Ganglion (DRG) Cells:
The neurons of the DRG naturally express the TRPV1 receptor.
Primary cultures of DRGs of newborn rats are prepared from 1-day-old rats. Briefly, after dissection, the ganglions are trypsinized and their cells dissociated mechanically by gentle trituration. […]
The measurement chambers (volume 800 μl) comprising the cell preparation are placed on the stage of an inverted microscope (Olympus IMT2) equipped with Hoffman optics (Modulation Contrast, New York) and are observed at a magnification of 400×. […] The overall currents (membrane potential set at −60 mV) are recorded with an Axopatch 1D amplifier (Axon Instruments, Foster City, Calif.) connected to a PC controlled by Pclamp8 software (Axon Instruments). The current plots are recorded on paper and simultaneously recorded digitally (sampling frequency 15 to 25 Hz) and acquired on the hard disk of the PC.
The application of a micromolar capsaicin solution produces an incoming cationic current with regard to the DRG cells (voltage set at −70 mV). […] The results are expressed as % of inhibition of the control capsaicin response.

Structure (SMILES)	melting point	inhibition at 0.01 µM (TRPV1 receptor)
Cn1ccc2cc(NC(=O)c3cc4cc(F)ccc4n3-c3cccnc3)ccc21 [Compound No. 2, N-(1-methyl-1H-indol-5-yl)-5-fluoro-1-(pyridin-3-yl)-1H-indole-2-carboxamide]	203 to 205 °C	–
Cn1ccc2cc(NC(=O)c3cc4cc(F)ccc4n3-c3ccccn3)ccc21 [Compound No. 3, N-(1-Methyl-1H-indol-5-yl)-5-fluoro-1-(pyridin-2-yl)-1H-indole-2-carboxamide]	210 to 211 °C	–
Cc1nc2cc(NC(=O)c3cc4cc(F)ccc4n3-c3ccncc3)ccc2n1C [Compound No. 4, N-(1,2-Dimethyl-1H-benzimidazol-5-yl)-5-fluoro-1-(pyridin-4-yl)-1H-indole-2-carboxamide]	226 to 229 °C	–
Cc1nc2cc(NC(=O)c3cc4cc(F)ccc4n3-c3ccccn3)ccc2n1C [Compound No. 5, N-(1,2-Dimethyl-1H-benzimidazol-5-yl)-5-fluoro-1-(pyridin-2-yl)-1H-indole-2-carboxamide]	260 to 261 °C	–
Cc1nc2cc(NC(=O)c3cc4cc(F)ccc4n3-c3cccnc3)ccc2n1C [Compound No. 6, N-(1,2-Dimethyl-1H-benzimidazol-5-yl)-5-fluoro-1-(pyridin-3-yl)-1H-indole-2-carboxamide]	139 to 141 °C	–
Cc1cc(C)nc(-n2c(C(=O)Nc3ccc4c(ccn4C)c3)cc3cc(F)ccc32)c1 [Compound No. 11, N-(1-Methyl-1H-indol-5-yl)-5-fluoro-1-(4,6-dimethylpyridin-2-yl)-1H-indole-2-carboxamide]	198 to 199 °C	–

Now from value to compound:

melting point	inhibition at 0.01 µM (TRPV1 receptor)	Structure (SMILES)
276 to 279 °C	–	Cc1ccnc(-n2c(C(=O)Nc3ccc4c(ccn4C)c3)cc3cc(F)ccc32)c1 [Compound No. 7, N-(1-methyl-1H-indol-5-yl)-5-fluoro-1-(4-methylpyridin-2-yl)-1H-indole-2-carboxamide]
270 to 278 °C	–	Cc1ccnc(-n2c(C(=O)Nc3ccc4c(c3)nc(C)n4C)cc3cc(F)ccc32)c1 [Compound No. 8, N-(1,2-Dimethyl-1H-benzimidazol-5-yl)-5-fluoro-1-(4-methylpyridin-2-yl)-1H-indole-2-carboxamide]
213 to 216 °C	–	Cc1cc(-n2c(C(=O)Nc3ccc4c(ccn4C)c3)cc3cc(F)ccc32)ccn1 [Compound No. 9, N-(1-Methyl-1H-indol-5-yl)-5-fluoro-1-(2-methylpyridin-4-yl)-1H-indole-2-carboxamide]
–	70%	Cc1cc(C)nc(-n2c(C(=O)Nc3ccc4c(c3)nc(C)n4C)cc3cc(F)ccc32)c1 [Compound No. 10, N-(1,2-Dimethyl-1H-benzimidazol-5-yl)-5-fluoro-1-(4,6-dimethylpyridin-2-yl)-1H-indole-2-carboxamide]
